{"source": "patent US20210292400A1", "about": "“METHODS FOR TREATING, PREVENTING AND DETECTING THE PROGNOSIS OF COLORECTAL CANCER” (priority 2018, published 2021)", "key": {"AA/C1/SB (SB) cells": {"test_system": "AA/C1/SB (SB) cells", "assay": "Cell proliferation assay, non-tumorigenic SB cells", "type": "cell-based, human", "conditions": "cells transfected with siRNA; compared to untreated cells; no Fn", "experimental": "(§1) Full length ANXA1 was amplified by PCR using primers listed in Table 1 and cloned in to pcDNA™3.1 (+) Mammalian Expression Vector. Plasmid transfection was performed using lipofectamine 2000 (Invitrogen, CA) following the manufacturer instructions. Control siRNA, ANXA1-specific siRNA and CDH1-specific siRNA were purchased from Invitrogen (CA). The siRNA utilized in these experiments included: Negative control: Invitrogen Stealth RNAi siRNA negative control cat number 12935300; Annexin siRNA: Invitrogen stealth siRNA (cat # ANXA1HSS100502) sequence UAACCAUUAUGGCCUUAUGCAAGGC (SEQ ID NO: 1); and E-cadherin siRNA: Invitrogen stealth siRNA (cat # CDH1HSS101669) sequence UUAAUCUCCAGCCAGUUGGCAGUGU (SEQ ID NO: 2). Lipofectamine RNAi MAX (Invitrogen, CA) was used for the siRNA transfection following manufacturer instructions.\n(§2) Cells were seeded in 24 well plates at 5×10^4 cells per well. Cells were untreated or incubated with bacteria at an MOI of 1000:1. Cell numbers were counted at indicated time points using a hemocytometer as previously described (Rubinstein et al. 2013). Each experiment was performed in triplicate and repeated at least three times."}, "[1]": {"test_system": "β-catenin in HCT116 cells", "assay": "Flow cytometry of β-catenin expression after F. nucleatum incubation, HCT116 cells", "type": "cell-based, human", "conditions": "HCT116 cells transfected with siRNA, then Fn 12230 MOI approximately 20:1", "experimental": "(§3) FIG. 3G are graphs of the results of flow cytometry analysis of β-catenin expression in 10C, HCT 116, and DLD1 cells following transfection with control siRNA (clear bars) or ANXA1-specific siRNA (solid bars) and subsequent incubation with F. nucleatum 12230 at MOI of approximately 20:1 for indicated time periods. The geometric means of cells treated with control siRNA at time 0 was designated as 1. Data are mean values±SD. *** p<0.001. The experiment was performed in duplicates or triplicates and repeated 1-3 times. **p<0.01, ***p<0.001 (two-way ANOVA).\n(§4) Approximately a total of 2×10^5 cells were incubated with Fn or purified FadA in 35 mm dish at 37° C. for indicated time periods. After washing with PBS, the cells were incubated with enzyme-free cell dissociation buffer (Thermo Fisher Scientific) for 5 min at 37° C. followed by addition of 1 ml DMEM. The cells were collected and centrifuged at 500 g for 3 minutes. The cell pellet was fixed with 75% cold ethanol and kept at −20° C. The pellet was centrifuged again at 2500 g for 10 minutes and washed with phosphate citrate buffer (200 mM Na2HPO4, 100 mM citric acid, pH 7.4), followed by blocking with PBS containing 2% skim milk at room temperature for 1 hour. […] After washing the cells with PBS, the flow cytometric data were acquired by a BD LSR II flow cytometer and analyzed using Flow Jo software (Tree Star, San Carlos, Calif.)."}, "β-catenin in 10C cells [2]": {"test_system": "β-catenin in 10C cells", "assay": "Immuno-staining of β-catenin nuclear translocation, 10C cells", "type": "cell-based, human", "conditions": "10C cells transfected with siRNA, then Fn 12230 MOI about 100:1 for 2 hours", "experimental": "The images were captured with confocal microscope at 800× magnification. −, no bacteria added. Note the increased expression of β-catenin and its nucleus translocation in response to Fn in control siRNA-treated cells, compared to ANXA1 siRNA-treated cells.\n(§5) An aliquot of 1×10^3-1×10^5 cells were seeded into Nunc Lab-Tek II Chamber Slide System (Thermo Fisher Scientific) in 400 μl and allowed to grow for 2-5 days till reaching desired confluency. Following washes with DMEM, the cells were incubated with CFSE-labeled Fn or Alexa Fluor™488-conjugated FadAc, mFadA, and BSA (300 μg/ml) for indicated time periods. Following washes of ten times with DMEM, the cells were fixed in PBS containing 4% paraformaldehyde at room temperature for 15 minutes, followed by neutralization in PBS containing 1% glycine at room temperature for 15 minutes. After blocking with PBS containing 2% skim milk and 0.3% Triton X-100 for 1 hour at 4° C., the cells were incubated overnight at 4° C. with goat anti-human E-cadherin polyclonal antibodies (1:400 dilution, R&D Systems, MN) and rabbit anti-AnnexinA1 polyclonal antibodies (1:400 dilution, Invitrogen) or rabbit anti-β-catenin polyclonal IgG (1:400 dilution, Invitrogen) in blocking solution. […]"}, "β-catenin in 10C cells [3]": {"test_system": "β-catenin in 10C cells", "assay": "Flow cytometry of β-catenin expression after F. nucleatum incubation, 10C cells", "type": "cell-based, human", "conditions": "10C cells transfected with siRNA, then Fn 12230 MOI approximately 20:1", "experimental": "as §3, §4"}, "β-catenin in DLD1 cells [4]": {"test_system": "β-catenin in DLD1 cells", "assay": "Flow cytometry of β-catenin expression after F. nucleatum incubation, DLD1 cells", "type": "cell-based, human", "conditions": "DLD1 cells transfected with siRNA, then Fn 12230 MOI approximately 20:1", "experimental": "as §3, §4"}, "AA/C1/SB/10C (10C) cells": {"test_system": "AA/C1/SB/10C (10C) cells", "assay": "Cell proliferation assay, 10C cells", "type": "cell-based, human", "conditions": "cells transfected with siRNA; compared to untreated cells; no Fn", "experimental": "as §1, §2"}, "SW480 cells": {"test_system": "SW480 cells", "assay": "Cell proliferation assay, SW480 cells", "type": "cell-based, human", "conditions": "cells transfected with siRNA; compared to untreated cells; no Fn", "experimental": "as §1, §2"}, "HT29 cells": {"test_system": "HT29 cells", "assay": "Cell proliferation assay, HT29 cells", "type": "cell-based, human", "conditions": "cells transfected with siRNA; compared to untreated cells; no Fn", "experimental": "as §1, §2"}, "HCT116 cells [5]": {"test_system": "HCT116 cells", "assay": "Cell proliferation assay, HCT116 cells", "type": "cell-based, human", "conditions": "cells transfected with siRNA; compared to untreated cells; no Fn", "experimental": "as §1\nAnnexin antibodies utilized in these experiments included: Annexin A1 (Thermo Fisher Scientific, cat #71-3400); Annexin A2 (Thermo Fisher Scientific, cat # PA5-27566); Annexin V (Thermo Fisher Scientific, cat # PA5-27872); Annexin A6 (Thermo Fisher Scientific, cat. #720161); and Annexin All (Thermo Fisher Scientific, cat # PA5-68093).\nCells were seeded in 24 well plates at 5×10^4 cells per well. […] Cell numbers were counted at indicated time points using a hemocytometer as previously described (Rubinstein et al. 2013). […]"}, "HCT116 cells [6]": {"test_system": "HCT116 cells", "assay": "Tumor xenograft of siRNA-treated HCT116 cells in nude mice", "type": "in vivo", "conditions": "HCT116 cells treated with siRNA, injected subcutaneously and bilaterally; vs control siRNA; 7 days post injection", "experimental": "FIG. 1H are graphs and images of xenografted tumor growth in nude mice following subcutaneous and bilateral inoculation of HCT116 cells transfected with control siRNA (left side) or ANXA1-specific siRNA (right side). The tumor volumes were measured after 7 days post injection (left panel, n=4). For each mouse, the tumor resulting from ANXA1 siRNA-treated cells was normalized to that arising from control siRNA-treated cells which was designated to 100%. The line represents the average. *p<0.05 (unpaired t-test). Representative tumors are shown on the right panel top, tumors arising from control siRNA treated cells; bottom, tumors arising from ANXA1-specific siRNA treated cells.\nFour-week old nude mice were purchased from Taconic Biosciences (NY, USA). An inoculum of 1×10^7 HCT 116 cells treated with either control or ANXA1-specific siRNA were injected subcutaneously and bilaterally into the nude mice, with control cells injected on the left side and ANXA1-knockdown cells on the right side. On day 7-9 post-injection, the tumor length and width were measured using calipers and tumor volumes were calculated using the following formula: Volume=(width)^2×length/2."}, "DLD1 cells": {"test_system": "DLD1 cells", "assay": "Cell proliferation assay, DLD1 cells", "type": "cell-based, human", "conditions": "cells transfected with siRNA; compared to untreated cells; no Fn", "experimental": "as §1, §2"}, "RKO cells": {"test_system": "RKO cells", "assay": "Cell proliferation assay, RKO cells", "type": "cell-based, human", "conditions": "cells transfected with siRNA; RKO expressed the least Annexin A1", "experimental": "as §1, §2"}, "β-catenin in DLD1 cells [7]": {"test_system": "β-catenin in DLD1 cells", "assay": "β-catenin nucleus translocation, DLD1 cells", "type": "cell-based, human", "conditions": "Annexin A1 knocked down by siRNA", "experimental": "as §5, with “solution. After washing three times with PBS containing 0.3% Triton X-100, the cells were incubated with Cy3-conjugated donkey anti-goat IgG (1:1000 dilution, Jackson ImmunoResearch, West Grove, Pa.) and Alexa Fluor®680-conjugated donkey anti-rabbit IgG (1:1000 dilution, Invitrogen), washed, and covered in mounting medium containing DAPI (Vector Laboratories, CA, USA).” for “solution.”"}, "[8]": {"test_system": "F. nucleatum 12230 attachment and invasion to 10C cells", "assay": "Cell culture attachment and invasion assay of F. nucleatum 12230 to 10C cells", "type": "cell-based, human", "conditions": "10C transfected with siRNA", "experimental": "Fn attachment and invasion to the untreated SB cells were designated as 100%, respectively; all other values were expressed as relative to those obtained with untreated SB. Data are mean values±SEM. *p<0.05, ** p<0.01 and *** p<0.001 (one-way ANOVA).\nData are mean values±SD. The experiment was performed in triplicates and repeated twice. *p<0.05 (student's t-test).\nThe assay was performed as previously described (Han et al. 2000). Briefly, host cells were seeded in 24 well plates and grown until 80% confluency. Bacteria were added at an MOI 50:1 and incubated for 1 hour at 37° C. in 5% CO2. Following washes with PBS and lysis with water for 20 minutes, serial dilutions of the lysates were plated onto blood agar plates to enumerate the viable bacterial counts. For the invasion assay, bacteria were incubated with the host cells for 3 hours followed by treatment with 300 μg/ml gentamicin and 200 μg/ml metronidazole for 1 hour at 37° C. Following washes with PBS, the cells were lysed with water and intracellular bacterial counts were determined as described above. The levels of attachment and invasion were expressed as the percentage of bacteria recovered following cell lysis relative to the total number of bacteria initially added. Each experiment was performed in triplicate and repeated at least three times."}}, "note": "“Also recorded” adds a separate entry of the source."}
{"substance": "ANXA1-specific siRNA: Invitrogen stealth siRNA cat # ANXA1HSS100502, sequence UAACCAUUAUGGCCUUAUGCAAGGC (SEQ ID NO: 1) (UAACCAUUAUGGCCUUAUGCAAGGC; commercial Invitrogen Stealth siRNA, chemistry not given here)", "values": [{"measurement": "growth of non-tumorigenic SB cells", "setting": "AA/C1/SB (SB) cells", "result": "without affecting"}, {"measurement": "F. nucleatum-mediated activation of β-catenin expression", "setting": "[1]", "result": "abolished"}, {"measurement": "nuclear translocation of β-catenin", "setting": "β-catenin in 10C cells [2]", "result": "abolished; also recorded: inhibited"}, {"measurement": "F. nucleatum-mediated activation of β-catenin expression", "setting": "β-catenin in 10C cells [3]", "result": "abolished"}, {"measurement": "F. nucleatum-mediated activation of β-catenin expression", "setting": "β-catenin in DLD1 cells [4]", "result": "abolished"}, {"measurement": "growth of 10C cells", "setting": "AA/C1/SB/10C (10C) cells", "result": "inhibited the growth"}, {"measurement": "growth of SW480 cells", "setting": "SW480 cells", "result": "inhibited the growth"}, {"measurement": "growth of HT29 cells", "setting": "HT29 cells", "result": "inhibited the growth"}, {"measurement": "growth of HCT116 cells", "setting": "HCT116 cells [5]", "result": "inhibited the growth"}, {"measurement": "xenografted tumor growth (tumor volume)", "setting": "HCT116 cells [6]", "result": "significantly attenuated tumor growth"}, {"measurement": "growth of DLD1 cells", "setting": "DLD1 cells", "result": "inhibited the growth"}, {"measurement": "growth of RKO cells", "setting": "RKO cells", "result": "without affecting"}, {"measurement": "nucleus translocation of β-catenin", "setting": "β-catenin in DLD1 cells [7]", "result": "abolished"}, {"measurement": "Fn binding (attachment) to 10C cells", "setting": "[8]; Fn 12230 MOI 50:1, 1 hour", "result": "effectively reduced"}, {"measurement": "Fn invasion of 10C cells", "setting": "[8]; Fn 12230 MOI 50:1, 3 hours", "result": "effectively reduced"}]}
